This is an account of results in ChEMBL document CHEMBL3425444, “Discovery of piperidin-4-yl-aminopyrimidine derivatives as potent non-nucleoside HIV-1 reverse transcriptase inhibitors” (Eur J Med Chem, 2015).

A short description of data set [1]: Cytotoxicity against human MT4 cells assessed as reduction of cell viability after 4 days by MTT assay. In kind it is cell-based.
Data set [2] can be described thus: Retention time of the compound by HPLC analysis. In kind it is physicochemical.
The subject of data set [3] is Human immunodeficiency virus 2. The data set can be described thus: Antiviral activity against HIV-2 ROD infected in human MT4 cells assessed as protection from virus-induced cytopathicity after 4 days by MTT assay. In kind it is functional, organism-based. As to conditions: Human immunodeficiency virus 2, ISOLATE ROD, MT4, 96 h.
For data set [4], the system named is Human immunodeficiency virus 1. Description: Antiviral activity against HIV-1 RES056 harboring reverse transcriptase K103N/Y181C double mutant infected in human MT4 cells assessed as protection from virus-induced cytopathicity after 4 days by MTT assay. In kind it is functional, organism-based. As to conditions: Human immunodeficiency virus 1, RES056, MT4, 96 h.

In data set [5] the target is Human immunodeficiency virus type 1 reverse transcriptase (Human immunodeficiency virus 1, UniProt Q72547). The data set can be described thus: Inhibition of HIV1 recombinant wild type reverse transcriptase p66/p51 assessed as reduction in biotin-labeled dUTP incorporation into DNA using polyr(A) x oligo(dT)16 template/primer hybrid.
The subject of data set [6] is Human immunodeficiency virus 1. The data set can be described thus: Antiviral activity against wild type HIV1 3B infected in human MT4 cells assessed as protection from virus-induced cytopathicity after 4 days by MTT assay. The data set is classed as functional, organism-based. The following applies: Human immunodeficiency virus 1, 3B, MT4, 96 h.
The nature of data set [7]: Selectivity index, ratio of CC50 for human MT4 cells to EC50 for HIV1 3B infected in human MT4 cells. The data set is classed as toxicity, cell-based. As to conditions: HIV1 3B infected MT4 cells, read-out: Selectivity Index.

As to `Cc1cc(C#N)cc(C)c1Oc1ccnc(NC2CCN(CC(=O)Nc3ccccc3)CC2)n1`, in data set [1], the CC50 at 96 h turned out to be 1820 nM. The Retention_time in data set [2] worked out at 10.9 min. The figures for the EC50 in data set [3], in data set [4] and in data set [6] were greater than 1820 nM, greater than 1820 nM and 3.3 nM, respectively. Also, in data set [5], the concentration for half-maximal inhibition (IC50) was determined as 199 nM. The selectivity ratio in data set [7] was 551.
